Data on 20 molecules can be found in ChEMBL document CHEMBL3352773, “Synthesis and evaluation of the 2,4-diaminoquinazoline series as anti-tubercular agents” (Bioorg Med Chem, 2014).

Data set [1] has as its system Mycobacterium tuberculosis. Kind of data set: Antituberculosis activity against Mycobacterium tuberculosis H37Rv assessed as complete growth inhibition after 5 days. Particulars: 120 h. In kind it is functional.
In data set [2] the test system is Mycobacterium tuberculosis. Kind of data set: Antituberculosis activity against Mycobacterium tuberculosis H37Rv assessed as complete growth inhibition at 20 uM after 5 days. In kind it is functional. The conditions noted are these: 120 h.
Data set [3] has as its system Mycobacterium tuberculosis. Put plainly: Bactericidal activity against Mycobacterium tuberculosis H37Rv under aerobic and replicating condition assessed as reduction in viability at 124 uM measured over 7 days by time kill kinetic study relative to control. In kind it is functional.
For data set [4], the system named is Mycobacterium tuberculosis. Kind of data set: Bactericidal activity against Mycobacterium tuberculosis H37Rv under non-replicating condition assessed as reduction in viability at 124 uM measured over 7 days by time kill kinetic study relative to control. In kind it is functional.
Data set [5] has as its system Mycobacterium tuberculosis. Put plainly: Antituberculosis activity against Mycobacterium tuberculosis H37Rv assessed as complete growth inhibition at 56 uM in presence of hemin. In kind it is functional, organism-based.
In data set [6] the test system is Mycobacterium tuberculosis. Kind of data set: Antituberculosis activity against Mycobacterium tuberculosis H37Rv assessed as complete growth inhibition at 56 uM in absence of hemin. Format: functional, organism-based.
For data set [7], the system named is Mycobacterium tuberculosis. Put plainly: Antituberculosis activity against Mycobacterium tuberculosis H37Rv grown in liquid media using glucose as carbon source assessed as growth inhibition. Format: functional.
Data set [8] relates to Mycobacterium tuberculosis. Kind of data set: Antituberculosis activity against Mycobacterium tuberculosis H37Rv grown in liquid media using palmitate as carbon source assessed as growth inhibition. Format: functional.
Data set [9] concerns Mycobacterium tuberculosis. Put plainly: Antituberculosis activity against Mycobacterium tuberculosis H37Rv grown in solid media assessed as growth inhibition by serial proportion method. In kind it is functional.
Data set [10] has as its system Mycobacterium tuberculosis. Put plainly: Antituberculosis activity against Mycobacterium tuberculosis H37Rv assessed as complete growth inhibition after 5 days using liquid media. In kind it is functional. Particulars: 120 h.
The subject of data set [11] is Mycobacterium tuberculosis. Kind of data set: Antituberculosis activity against Mycobacterium tuberculosis H37Rv assessed as complete growth inhibition after 5 days using solid media by serial proportion method. Format: functional. The conditions noted are these: 120 h.
Data set [12] deals with Rattus norvegicus. Kind of data set: Volume of distribution at steady state in Sprague-Dawley rat at 10 mg/kg, po after 24 hrs. The conditions noted are these: in vivo. Also on record: dose 10 mg/kg, route oral. In kind it is ADME, organism-based.
Data set [13] has as its system Rattus norvegicus. Put plainly: AUC in Sprague-Dawley rat at 10 mg/kg, po after 24 hrs. Particulars: in vivo. Also noted: time < 24 hr, dose 10 mg/kg, route oral. In kind it is ADME, organism-based, Plasma.
Data set [14] in a line: Oral bioavailability in Sprague-Dawley rat at 10 mg/kg after 24 hrs. The conditions noted are these: in vivo. Format: ADME, organism-based.

Converted amounts (≈) assume the structure as drawn. The source made the active and inactive calls. The rule behind the calls is not given here. A value given as a limit tells only on which side of the number the result lay.

The MIC99 is the lowest concentration that inhibits either 99% of growth or 99% of the strains tested, depending on the study. As a reminder, the inhibition is the change of the read-out against control, counted positive when it falls. As usually defined, the AUC is concentration integrated over time. A high value points to more exposure. As usually defined, the bioavailability is the share of a dose that reaches the circulation, judged against a reference dose that is usually intravenous.

As for `Fc1ccc(Nc2nc(N3CCCCC3)nc3ccccc23)cc1`, the MIC99 in [1] worked out at 39 µM (≈ 12.6 µg/mL). Besides, the inhibition at 20 µM in [2] was less than 30%.
For `Cc1cc(NCc2ccc(F)cc2)nc(N2CCCCC2)n1`, in that order: 83 µM (≈ 24.9 µg/mL) and less than 30%.
For `Fc1ccc(CNc2nc(CN3CCCCC3)nc3ccccc23)cc1`, in that order: 29 µM (≈ 10.2 µg/mL) and less than 30%.
`Fc1ccc(CNc2nc(N3CCCCC3)nc3cccnc23)cc1`: in data set [1], the MIC99 is 37 µM (≈ 12.5 µg/mL). In addition, the inhibition at 20 µM in data set [2] was less than 30%.
As for `Cc1nc(NCc2ccc(F)cc2)c2ccccc2n1`, in data set [1], the MIC99 is 94 µM (≈ 25.1 µg/mL). Moreover, the inhibition at 20 µM in [2] was less than 30%.
For `Nc1nc(NCc2ccc(F)cc2)c2ccccc2n1`, in that order: 93 µM (≈ 25 µg/mL) and less than 30%.
For `c1ccc(CNc2nc(N3CCCCC3)nc3ccccc23)cc1` the same measures were 9.2 µM (≈ 2.93 µg/mL) and 96%.
Turning to `FC(F)(F)c1ccc(CCNc2nc(N3CCCCC3)nc3ccccc23)cc1`, in data set [1], the MIC99 amounted to 5.7 µM (≈ 2.28 µg/mL). Further, the inhibition at 20 µM in data set [2] came out at 97%.
For `Fc1ccc(CNc2nc(N3CCCCC3)nc3ccccc23)cc1`, in that order: 7.4 µM (≈ 2.49 µg/mL) and 97%.
For `COc1cc2nc(N3CCCCC3)nc(NCc3ccc(F)cc3)c2cc1OC` the same measures were 25 µM (≈ 9.91 µg/mL) and 92%.
For `c1ccc2nc(N3CCCCC3)ncc2c1` the same measures were 469 µM (≈ 100 µg/mL) and less than 30%.
Regarding `FC(F)(F)c1ccc(CNc2nc(N3CCCCC3)nc3ccccc23)cc1`, the MIC99 in data set [1] is 6.6 µM (≈ 2.55 µg/mL); in data set [7] it was 28 µM (≈ 10.8 µg/mL); in [8], 28 µM (≈ 10.8 µg/mL); in [9] it was 16 µM (≈ 6.18 µg/mL). Also, the inhibition at 20 µM in [2] is 99%. The “fold change (FC)” value worked out at 4 in data set [3] and 3 in data set [4]. The result in data set [5] and in [6] was Active.
Take `Fc1ccc(CNc2nc(N3CCCCC3)nc3ncccc23)cc1`: the MIC99 in data set [1] was 74 µM (≈ 25 µg/mL). In addition, the inhibition at 20 µM in data set [2] was 37%.
`Fc1ccc(CNc2nc(N3CCNCC3)nc3ccccc23)cc1`: the MIC99 in data set [1] came out at 148 µM (≈ 49.9 µg/mL). For the same molecule, the inhibition at 20 µM in data set [2] was less than 30%.
Regarding `Fc1ccc(CNc2nc(N3CCCCC3)ncc2Cc2ccccc2)cc1`, in data set [1], the MIC99 came out at 26 µM (≈ 9.79 µg/mL). For the same molecule, the inhibition at 20 µM in [2] is 68%.
For `Fc1ccc(COc2nc(N3CCCCC3)nc3ccccc23)cc1` the same measures were 296 µM (≈ 99.9 µg/mL) and less than 30%.
In the case of `CO[C@H]1/C=C/O[C@@]2(C)Oc3c(C)c(O)c4c(O)c(c(/C=N/N5CCN(C)CC5)c(O)c4c3C2=O)NC(=O)/C(C)=C\C=C\[C@H](C)[C@H](O)[C@@H](C)[C@@H](O)[C@@H](C)[C@H](OC(C)=O)[C@@H]1C` [RIFAMPIN], the inhibition at 20 µM in data set [2] came out at 100%. The MIC99 in data set [10] came to 0.004 µM (≈ 0.00329 µg/mL); in [11], 0.013 µM (≈ 0.0107 µg/mL).
Turning to `Fc1ccc(CNc2nc(N3CCCCC3)nc3cnccc23)cc1`, the MIC99 in data set [1] stood at 30 µM (≈ 10.1 µg/mL). In addition, the inhibition at 20 µM in data set [2] is 59%.
For `Cc1cnc(N2CCCCC2)nc1NCc1ccc(F)cc1`, in that order: 83 µM (≈ 24.9 µg/mL) and less than 30%.
With `Fc1ccc(Cn2cnc3c(N4CCCCC4)nc4ccccc4c32)cc1`, the inhibition at 20 µM in data set [2] was found to be 98%. In the data set with Rattus norvegicus [12], the Vdss turned out to be 14.2 L/kg. In addition, the AUC with Rattus norvegicus [13] turned out to be 27.4 ng·h/mL. This molecule also registered a bioavailability in data set [14] of 3.4%. The MIC99 in [10] amounted to 13.8 µM (≈ 4.97 µg/mL); in data set [11], 27.7 µM (≈ 9.98 µg/mL).
